Columns and labels:
Type in all cases: in vivo
[1] = system: Italian ryegrass (Lolium multiflorum); assay: Test A preemergence, visual injury rating; settings: for Plant response rating, Ryegrass, Italian: 31 g ai/ha, 0 to 100 scale, 0 no effect, 100 complete control; for pest or weed control at 125 g/ha: Lolium multiflorum, pre-emergence, 240 h, 125 g ai/ha, 0 to 100 scale (0 no effect, 100 complete control), read-out: Ryegrass, Italian plant response rating
In short: (§1)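 Pre- and postemergence greenhouse screen. Soil: loam + sand. Spray carrier: solvent mixture, non-phytotoxic, with surfactant. Post timing at 1–2 leaves, height 2–10 cm. Readout: visual injury on a 0–100 scale roughly 10 days after application, untreated plants as reference.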

[2] = system: barnyardgrass (Echinochloa crus-galli); assay: Test A preemergence, visual injury rating; settings: for Plant response rating, Barnyardgrass: 31 g ai/ha, 0 to 100 scale, 0 no effect, 100 complete control; for pest or weed control at 125 g/ha: Echinochloa crus-galli, pre-emergence, 240 h, 125 g ai/ha, 0 to 100 scale (0 no effect, 100 complete control), read-out: Barnyardgrass plant response rating
In short: as §1

[3] = system: giant foxtail (Setaria faberii); assay: Test A preemergence, visual injury rating; settings: for Plant response rating, Foxtail, Giant: 31 g ai/ha, 0 to 100 scale, 0 no effect, 100 complete control; for pest or weed control at 125 g/ha: Setaria faberi, pre-emergence, 240 h, 125 g ai/ha, 0 to 100 scale (0 no effect, 100 complete control), read-out: Foxtail, Giant plant response rating
In short: as §1

kochia (Kochia scoparia) [4] = assay: Test A preemergence, visual injury rating; settings: for Plant response rating, Kochia: 31 g ai/ha, 0 to 100 scale, 0 no effect, 100 complete control; for pest or weed control at 125 g/ha: Bassia scoparia, pre-emergence, 240 h, 125 g ai/ha, 0 to 100 scale (0 no effect, 100 complete control), read-out: Kochia plant response rating
In short: as §1

[5] = system: pigweed (Amaranthus retroflexus); assay: Test A preemergence, visual injury rating; settings: for Plant response rating, Pigweed: 31 g ai/ha, 0 to 100 scale, 0 no effect, 100 complete control; for pest or weed control at 125 g/ha: Amaranthus retroflexus, pre-emergence, 240 h, 125 g ai/ha, 0 to 100 scale (0 no effect, 100 complete control), read-out: Pigweed plant response rating
In short: as §1

[6] = system: ragweed (common ragweed, Ambrosia elatior); assay: Test A preemergence, visual injury rating; settings: for Plant response rating, Ragweed: 31 g ai/ha, 0 to 100 scale, 0 no effect, 100 complete control; for pest or weed control at 125 g/ha: Ambrosia artemisiifolia, pre-emergence, 240 h, 125 g ai/ha, 0 to 100 scale (0 no effect, 100 complete control), read-out: Ragweed plant response rating
In short: as §1

[7] = system: Italian ryegrass (Lolium multiflorum); assay: Test A postemergence, visual injury rating; settings: 0 is no effect, 100 is complete control; for Ryegrass, Italian plant response rating: 31 g ai/ha, 0 to 100 scale, approximately 10 days; for pest or weed control at 125 g/ha: Lolium multiflorum, post-emergence, 240 h, 125 g ai/ha, read-out: Ryegrass, Italian plant response rating (0 to 100 scale)
In short: as §1

[8] = system: barnyardgrass (Echinochloa crus-galli); assay: Test A postemergence, visual injury rating; settings: 0 is no effect, 100 is complete control; for Barnyardgrass plant response rating: 31 g ai/ha, 0 to 100 scale, approximately 10 days; for pest or weed control at 125 g/ha: Echinochloa crus-galli, post-emergence, 240 h, 125 g ai/ha, read-out: Barnyardgrass plant response rating (0 to 100 scale)
In short: as §1

[9] = system: blackgrass (Alopecurus myosuroides); assay: Test A postemergence, visual injury rating; settings: 0 is no effect, 100 is complete control; for Blackgrass plant response rating: 31 g ai/ha, 0 to 100 scale, approximately 10 days; for pest or weed control at 125 g/ha: Alopecurus myosuroides, post-emergence, 240 h, 125 g ai/ha, read-out: Blackgrass plant response rating (0 to 100 scale)
In short: as §1

corn (Zea mays) = assay: Test A postemergence, visual injury rating; settings: 0 is no effect, 100 is complete control; for Corn plant response rating: 31 g ai/ha, 0 to 100 scale, approximately 10 days; for plant injury at 125 g/ha: Zea mays, post-emergence, 240 h, 125 g ai/ha, read-out: Corn plant response rating (0 to 100 scale)
In short: as §1

[10] = system: galium (catchweed bedstraw, Galium aparine); assay: Test A postemergence, visual injury rating; settings: 0 is no effect, 100 is complete control; for Galium plant response rating: 31 g ai/ha, 0 to 100 scale, approximately 10 days; for pest or weed control at 125 g/ha: Galium, post-emergence, 240 h, 125 g ai/ha, read-out: Galium plant response rating (0 to 100 scale)
In short: as §1

[11] = system: giant foxtail (Setaria faberii); assay: Test A postemergence, visual injury rating; settings: 0 is no effect, 100 is complete control; for Foxtail, Giant plant response rating: 31 g ai/ha, 0 to 100 scale, approximately 10 days; for pest or weed control at 125 g/ha: Setaria faberi, post-emergence, 240 h, 125 g ai/ha, read-out: Foxtail, Giant plant response rating (0 to 100 scale)
In short: as §1

kochia (Kochia scoparia) [12] = assay: Test A postemergence, visual injury rating; settings: 0 is no effect, 100 is complete control; for Kochia plant response rating: 31 g ai/ha, 0 to 100 scale, approximately 10 days; for pest or weed control at 125 g/ha: Bassia scoparia, post-emergence, 240 h, 125 g ai/ha, read-out: Kochia plant response rating (0 to 100 scale)
In short: as §1

[13] = system: pigweed (Amaranthus retroflexus); assay: Test A postemergence, visual injury rating; settings: 0 is no effect, 100 is complete control; for Pigweed plant response rating: 31 g ai/ha, 0 to 100 scale, approximately 10 days; for pest or weed control at 125 g/ha: Amaranthus retroflexus, post-emergence, 240 h, 125 g ai/ha, read-out: Pigweed plant response rating (0 to 100 scale)
In short: as §1

[14] = system: ragweed (common ragweed, Ambrosia elatior); assay: Test A postemergence, visual injury rating; settings: 0 is no effect, 100 is complete control; for Ragweed plant response rating: 31 g ai/ha, 0 to 100 scale, approximately 10 days; for pest or weed control at 125 g/ha: Ambrosia artemisiifolia, post-emergence, 240 h, 125 g ai/ha, read-out: Ragweed plant response rating (0 to 100 scale)
In short: as §1

[15] = system: wheat (Triticum aestivum); assay: Test A postemergence, visual injury rating; settings: 0 is no effect, 100 is complete control; for Wheat plant response rating: 31 g ai/ha, 0 to 100 scale, approximately 10 days; for plant injury at 125 g/ha: Triticum aestivum, post-emergence, 240 h, 125 g ai/ha, read-out: Wheat plant response rating (0 to 100 scale)
In short: as §1

[16] = system: barnyardgrass (Echinochloa crus-galli); assay: Test B flooded paddy test, plant response rating; settings: Echinochloa crus-galli, 312 h; 250 g ai/ha; Flood; scale of 0 to 100 where 0 is no effect and 100 is complete control; 13 to 15 days
In short: (§2)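 Compound was added to standing water 3 cm above soil, flood maintained, and plants held in a greenhouse before visual scoring against controls at 13 to 15 days.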

[17] = system: ducksalad (Heteranthera limosa); assay: Test B flooded paddy test, plant response rating; settings: Heteranthera limosa, 312 h; 250 g ai/ha; Flood; scale of 0 to 100 where 0 is no effect and 100 is complete control; 13 to 15 days
In short: as §2

rice (Oryza sativa) = assay: Test B flooded paddy test, plant response rating; settings: Oryza sativa, 312 h; 250 g ai/ha; Flood; scale of 0 to 100 where 0 is no effect and 100 is complete control; 13 to 15 days
In short: as §2

[18] = system: sedge, umbrella (small-flower umbrella sedge, Cyperus difformis); assay: Test B flooded paddy test, plant response rating; settings: Cyperus difformis, 312 h; 250 g ai/ha; Flood; scale of 0 to 100 where 0 is no effect and 100 is complete control; 13 to 15 days
In short: as §2

Row | SMILES | Plant response rating, Ryegrass, Italian [1] | pest or weed control at 125 g/ha [1] [%] | Plant response rating, Barnyardgrass [2] | pest or weed control at 125 g/ha [2] [%] | Plant response rating, Foxtail, Giant [3] | pest or weed control at 125 g/ha [3] [%] | Plant response rating, Kochia (kochia (Kochia scoparia) [4]) | pest or weed control at 125 g/ha (kochia (Kochia scoparia) [4]) [%] | Plant response rating, Pigweed [5] | pest or weed control at 125 g/ha [5] [%] | Plant response rating, Ragweed [6] | pest or weed control at 125 g/ha [6] [%] | Ryegrass, Italian plant response rating [7] | pest or weed control at 125 g/ha [7] [%] | Barnyardgrass plant response rating [8] | pest or weed control at 125 g/ha [8] [%] | Blackgrass plant response rating [9] | pest or weed control at 125 g/ha [9] [%] | Corn plant response rating (corn (Zea mays)) | plant injury at 125 g/ha (corn (Zea mays)) [%] | also measured
1 | O=C(OCCC(F)(F)F)c1cc(C(F)(F)F)ccc1Oc1ncc(Cl)cn1 [Compound 53] | 0 | 0 | 0 | 0 | 0 | 0 | 0 | 0 | 0 | 0 | 0 | 0 | 0 | 0 | 0 | 0 | 0 | 0 | 0 | 0 | Galium plant response rating [10]: 0; pest or weed control at 125 g/ha [10]: 0%; Foxtail, Giant plant response rating [11]: 0; pest or weed control at 125 g/ha [11]: 0%; Kochia plant response rating (kochia (Kochia scoparia) [12]): 0; pest or weed control at 125 g/ha (kochia (Kochia scoparia) [12]): 0%; Pigweed plant response rating [13]: 0; pest or weed control at 125 g/ha [13]: 0%; Ragweed plant response rating [14]: 0; pest or weed control at 125 g/ha [14]: 0%; Wheat plant response rating [15]: 0; plant injury at 125 g/ha [15]: 0%; pest or weed control at 250 g/ha [16]: 0%; pest or weed control at 250 g/ha [17]: 0%; plant injury at 250 g/ha (rice (Oryza sativa)): 0%; pest or weed control at 250 g/ha [18]: 0%
2 | Cc1ccc(Oc2ncc(Cl)cn2)c(C(=O)OCCC(F)(F)F)c1 [Compound 54] | 0 | 0 | 0 | 0 | 0 | 0 | 0 | 0 | 0 | 0 | 0 | 0 | 0 | 0 | 0 | 0 | 0 | 0 | 0 | 0 | Galium plant response rating [10]: 0; pest or weed control at 125 g/ha [10]: 0%; Foxtail, Giant plant response rating [11]: 0; pest or weed control at 125 g/ha [11]: 0%; Kochia plant response rating (kochia (Kochia scoparia) [12]): 0; pest or weed control at 125 g/ha (kochia (Kochia scoparia) [12]): 0%; Pigweed plant response rating [13]: 0; pest or weed control at 125 g/ha [13]: 0%; Ragweed plant response rating [14]: 0; pest or weed control at 125 g/ha [14]: 0%; Wheat plant response rating [15]: 0; plant injury at 125 g/ha [15]: 0%; pest or weed control at 250 g/ha [16]: 0%; pest or weed control at 250 g/ha [17]: 0%; plant injury at 250 g/ha (rice (Oryza sativa)): 0%; pest or weed control at 250 g/ha [18]: 0%

— patent US11053204B2, “Pyrimidinyloxy benzene derivatives as herbicides” (FMC Corporation, priority 2015, dated 2021)
